Source: paper PMC4608554 (Bioorganic & medicinal chemistry, 2015)
Entries after “also recorded” stand apart in the source; their conditions may differ.

What was measured:
[1] = Tissue distribution/metabolism of chelators in rats; assay type: in vivo, rat (male Sprague-Dawley); settings: for concentration in kidney: rat kidney
[2] = tested on: non-iron-overloaded, bile duct-cannulated rats; settings: 4'-butoxy analogue of 2; cited from earlier work
[3] = rat liver, 2 h post drug, sc 300 µmol/kg; cited from earlier work
[4] = tested on: non-iron-overloaded, bile duct-cannulated rats; experiment: Chelator-induced iron clearance; assay type: in vivo; settings: po, 300 µmol/kg
male Sprague-Dawley rats = experiment: 10-day toxicity trial of 11 in rats; assay type: in vivo, rat; settings: 384 µmol/kg/day
[5] = rat liver, 8 h after 8 sc 300 µmol/kg
[6] = rat plasma, 8 h after 8 sc 300 µmol/kg

C[C@]1(C(=O)O)CSC(c2ccc(OCCCCCC(=O)O)cc2O)=N1 [compound 12, (S)-4,5-dihydro-2-[2-hydroxy-4-(5-carboxypentyloxy)phenyl]-4-methyl-4-thiazolecarboxylic acid]
presence in cardiac tissue ([1]; rat heart, any of the time points after 11 sc 300 µmol/kg): not found
concentration in kidney ([1]; 0.5 h after 11 sc 300 µmol/kg): found
concentration in kidney ([1]; 1 h after 11 sc 300 µmol/kg): found
presence in liver ([1]; rat liver, 2, 4, or 8 h after 11 sc 300 µmol/kg): not detected
share of the total drug (parent + metabolites) ([1]; rat liver, 0.5 h after 11 sc 300 µmol/kg): 11%
share of the total drug (parent + metabolites) ([1]; rat liver, 1 h after 11 sc 300 µmol/kg): 2%
presence in pancreas ([1]; rat pancreas, any of the time points after 11 sc 300 µmol/kg): not found
presence in plasma ([1]; rat plasma, 0.5-8 h after 11 sc 300 µmol/kg): None

CCCCOc1ccc(C2=N[C@@H](C(=O)O)CS2)c(O)c1 [(S)-2-(4-butoxy-2-hydroxyphenyl)-4,5-dihydro-4-thiazolecarboxylic acid]
time to deaths [2]: ≤ 24 h

COc1ccc(C2=N[C@@](C)(C(=O)O)CS2)c(O)c1 [compound 4, (S)-4,5-dihydro-2-(2-hydroxy-4-methoxyphenyl)-4-methyl-4-thiazolecarboxylic acid]
fraction of parent demethylated to 2 [3]: about 30%

C[C@]1(C(=O)O)CSC(c2ccc(OCCOCC(=O)O)cc2O)=N1 [compound 9, (S)-4,5-dihydro-2-[2-hydroxy-4-(4-carboxy-3-oxabutyloxy)phenyl]-4-methyl-4-thiazolecarboxylic acid]
share of the drug (parent + metabolite) ([1]; rat liver, 1 h after 8 sc 300 µmol/kg): 59%
presence in liver [1, 5]: no metabolite 9 remains
share of drug converted to / in the form of metabolite ([1]; rat plasma, 0.5 h after 8 sc 300 µmol/kg): ~60%
share of drug in the form of the metabolite ([1]; rat plasma, 2 h after 8 sc 300 µmol/kg): 88%
presence in plasma [1, 6]: Neither the parent 8 nor the metabolite 9 was found
presence of carboxylic acid 9 in tissues after 7 ([1]; rat tissues, 7 sc 300 µmol/kg): not detected

COCCCCCCOc1ccc(C2=N[C@@](C)(C(=O)O)CS2)c(O)c1 [compound 10, (S)-4,5-dihydro-2-[2-hydroxy-4-(6-methoxyhexyloxy)phenyl]-4-methyl-4-thiazolecarboxylic acid]
overt toxicity in rats ([4]; bile duct-cannulated rats): profoundly toxic; also recorded: very toxic
time of death of one of the animals post drug ([4]; bile duct-cannulated rats, remaining rodents euthanized at 24 h): ~ 22 h
time of peak drug-induced iron excretion post drug ([4]; rat): 6 h

C[C@]1(C(=O)O)CSC(c2ccc(OCCOCCO)cc2O)=N1 [compound 8, (S)-4,5-dihydro-2-[2-hydroxy-4-(5-hydroxy-3-oxapentyloxy)phenyl]-4-methyl-4-thiazolecarboxylic acid]
share of the drug (parent + metabolite) ([1]; rat liver, 0.5 h after 8 sc 300 µmol/kg): 53%
presence in liver [1, 5]: very little
share of total drug concentration ([1]; rat plasma, 0.5 h after 7 sc 300 µmol/kg): 5%
presence in plasma [1, 6]: Neither the parent 8 nor the metabolite 9 was found

C[C@]1(C(=O)O)CSC(c2ccc(OCCCCCCO)cc2O)=N1 [compound 11, (S)-4,5-dihydro-2-[2-hydroxy-4-(6-hydroxyhexyloxy)phenyl]-4-methyl-4-thiazolecarboxylic acid]
concentration in heart ([1]; rat heart, 0.5 h after 11 sc 300 µmol/kg): 26 nmol/g wet weight
concentration in kidney ([1]; 0.5 h after 11 sc 300 µmol/kg): trace amounts
presence in liver ([1]; rat liver, any of the time points (0.5-8 h) after 11 sc 300 µmol/kg): not found
concentration in pancreas ([1]; rat pancreas, 0.5 h after 11 sc 300 µmol/kg): < 5 nmol/g wet weight
share of the total (parent + metabolites) ([1]; rat plasma, 4 h after 11 sc 300 µmol/kg): no longer detectable
conversion of alcohol 11 to metabolites 12-14 ([1]; rats, 11 sc 300 µmol/kg): Significant conversion; also recorded: quickly converted; also recorded: very quickly converted
survival (male Sprague-Dawley rats; rat, po by gavage once daily for ten days): survived
histopathology (25 tissues/rat) (male Sprague-Dawley rats; rat, po once daily x 10 d): could not identify any drug-related abnormalities
overall toxicity (male Sprague-Dawley rats; rodents, once daily for 10 days): complete lack of toxicity
overt toxicity in rats ([4]; bile duct-cannulated rats): did not present with any overt toxicity; also recorded: did not display any overt toxicity; also recorded: did not elicit any signs of overt toxicity
